Tested on: SiAT1
Experiment: HPLC product assay, Michaelis-Menten fit
Format: biochemical, Sesamum indicum
Details: read-out: apparent Km; 75 mM salidroside, 50 mM Tris-HCl pH 7.4, 30°C

Km [µM]	Compound
1.13 ± 0.42	CC(C)(COP(=O)(O)OP(=O)(O)OC[C@H]1O[C@@H](n2cnc3c(N)ncnc32)[C@H](O)[C@@H]1OP(=O)(O)O)[C@@H](O)C(=O)NCCC(=O)NCCSC(=O)/C=C/c1ccc(O)c(O)c1 [caffeoyl-CoA]
1.66 ± 0.39	CC(C)(COP(=O)(O)OP(=O)(O)OC[C@H]1O[C@@H](n2cnc3c(N)ncnc32)[C@H](O)[C@@H]1OP(=O)(O)O)[C@@H](O)C(=O)NCCC(=O)NCCSC(=O)/C=C/c1ccc(O)cc1 [p-coumaroyl-CoA]
